Non-standard residues stand in square brackets, D forms with d. No end group written: not given here.
How the values were obtained:
[1] = test system: several mammalian cell types; conditions: energy-independent manner; Zhao et al. 2003; cited from earlier work
[2] = test system: New Zealand white rabbits; assay: Rabbit model of acute myocardial ischemia and reperfusion (coronary occlusion), infarct size by histomorphometry; format: in vivo
Procedure: New Zealand white rabbits were used in this study. The rabbits were males and >10 weeks in age. Environmental controls in the animal rooms were set to maintain temperatures of 61° to 72° F. and relative humidity between 30% and 70%. Room temperature and humidity were recorded hourly, and monitored daily. There were approximately 10-15 air exchanges per hour in the animal rooms. Photoperiod was 12-hr light/12-hr dark (via fluorescent lighting) with exceptions as necessary to accommodate dosing and data collection. Routine daily observations were performed. Harlan Teklad, Certified Diet (2030C), rabbit diet was provided approximately 180 grams per day from arrival to the facility. In addition, fresh fruits and vegetables were given to the rabbit 3 times a week.
The peptide D-Arg-2′6′-Dmt-Lys-Phe-NH2 (sterile lyophilized powder) was used as the test article. Dosing solutions were formulated at no more than 1 mg/ml, and were delivered via continuous infusion (IV) at a constant rate (e.g., 50 μL/kg/min). Normal saline (0.9% NaCl) was used as a control.
The test/vehicle articles were given intravenously, under general anesthesia, in order to mimic the expected route of administration in the clinical setting of AMI and PTCA. Intravenous infusion was administered via a peripheral vein using a Kd Scientific infusion pump (Holliston, Mass. 01746) at a constant volume (e.g., 50 μL/kg/min).
The study followed a predetermined placebo and sham controlled design. In short, 10-20 healthy, acclimatized, male rabbits were assigned to one of three study arms (approximately 2-10 animals per group). Arm A (n=10, CTRL/PLAC) includes animals treated with vehicle (vehicle; VEH, IV); Arm B (n=10, treated) includes animals treated with peptide; Arm C (n=2, SHAM) includes sham-operated time-controls treated with vehicle (vehicle; VEH, IV) or peptide.
In all cases, treatments were started approximately 10 min after the onset of a 30 min ischemic insult (coronary occlusion) and continued for up to 3 h following reperfusion. In all cases, cardiovascular function was monitored both prior to and during ischemia, as well as for up to 180 min (3 h) post-reperfusion. The experiments were terminated 3 h post-reperfusion (end of study); irreversible myocardial injury (infarct size by histomorphometery) at this time-point was evaluated, and was the primary-end-point of the study.
General anesthesia was induced intramuscularly (IM) with a ketamine (˜35-50 mg/kg)/xylazine (˜5-10 mg/kg) mixture. A venous catheter was placed in a peripheral vein (e.g., ear) for the administration of anesthetics. In order to preserve autonomic function, anesthesia was maintained with continuous infusions of propofol (˜8-30 mg/kg/hour) and ketamine (˜1.2-2.4 mg/kg/hr). A cuffed tracheal tube was placed via a tracheotomy (ventral midline incision) and used to mechanically ventilate the lungs with a 95% O2/5% CO2 mixture via a volume-cycled animal ventilator (˜40 breaths/minute with a tidal volume of −12.5 ml/kg) in order to sustain PaCO2 values broadly within the physiological range.
Once a surgical plane of anesthesia was reached, either transthoracic or needle electrodes forming two standard ECG leads (e.g., lead II, aVF, V2) were placed. A cervical cut-down exposed a carotid artery, which was isolated, dissected free from the surrounding tissue and cannulated with a dual-sensor high-fidelity micromanometer catheter (Millar Instruments); the tip of this catheter was advanced into the left-ventricle (LV) retrogradely across the aortic valve, in order to simultaneously determine aortic (root, proximal transducer) and left-ventricular (distal transducer) pressures. The carotid cut-down also exposed the jugular vein, which was cannulated with a hollow injection catheter (for blood sampling). Finally, an additional venous catheter was placed in a peripheral vein (e.g., ear) for the administration of vehicle/test articles. […]

[3] = test system: subjects with STEMI and hypertension; assay: EMBRACE STEMI trial, subjects with anterior STEMI undergoing PCI; hypertensive subgroup compared; format: in vivo, human
Procedure: The EMBRACE STEMI study is known in the art (see e.g., Chakrabarti et al., Am Heart J, 165(4):509-514 (2013), the content of which is incorporate by reference in its entirety). Briefly, the EMBRACE STEMI trial is a multicenter, randomized, double-blind, placebo-controlled study. The study design was approved by institutional and national regulatory bodies and ethical committees. Multiple safety reviews were performed by an independent Data and Safety Monitoring Board throughout the course of the trial. All subjects provided written informed consent prior to randomization.
Subjects aged 18 to 85 years with anterior STEMI undergoing first-time percutaneous coronary intervention (PCI) plus stenting with an anticipated time from ischemic symptoms to time of balloon inflation <4 hours, with >0.1 mV ST-segment elevation in at least 2 contiguous precordial leads were enrolled. Major exclusion criteria included a history of prior myocardial infarction (MI), previous heart failure (e.g., known left ventricle ejection fraction (LVEF)<30% prior to the qualifying infarct), and cardiogenic shock.
To assess efficacy in large MIs that had not sustained reperfusion injury, only subjects who met angiographic and post-PCI inclusion criteria were included in the primary analysis population (PAP) (FIG. 7): (1) the presence of a proximal/mid left anterior descending (LAD) occlusion with pre-PCI TIMI flow 0 or 1 and no visible evidence of significant coronary collateral flow; (2) dilation of only the LAD; (3) successful PCI of the LAD with post-PCI TIMI flow >2; and (4) no evidence of a second MI within 72 hours of the initial PCI which would confound the infarct size determination.
Subjects were randomized in a double blind 1:1 fashion to receive either D-Arg-2′,6′-Dmt-Lys-Phe-NH2 of at 0.05 mg/kg/hr or a control placebo by IV injection (Treatment group: n=58; Control group: n=60). D-Arg-2′,6′-Dmt-Lys-Phe-NH2 was administered >15 minutes, but <60 minutes prior to PCI and for 1 hour following reperfusion. Subjects underwent cardiac magnetic resonance imaging (MRI) at 4±1 days and again at 30±7 days post-PCI. Follow-up visits were conducted at discharge, at 30±7 days, 90±14 days, and 6±1.5 months post-PCI.
The primary end point of the study was infarct size, or the area under the curve (AUC) of creatine kinase-MB (CK-MB) enzyme over 72 hours following PCI with the values log transformed and adjusted for the percent of artery distal to the occlusion and duration of symptoms (two variables known to confound the estimation of infarct size).19-21 Secondary end points included the AUCO-72 of troponin I, peak cardiac enzymes, the ratio of the volume of infarcted myocardium (late contrast gadolinium enhancement) to the left ventricular (LV) mass on cardiac Mill at day 4±1, day 30±7, and the change (4) in ratios from day 4±1 to day 30±7, measures of myocardial structure and function (left ventricular ejection fraction (LVEF), left ventricular end systolic volume (LVESV), and left ventricular end diastolic volume (LVEDV)) at day 4±1, day 30±7, and the change (4) in these measures from day 4±1 to day 30±7, TIMI myocardial perfusion grade (TMPG), TIMI flow grade (TFG), corrected TIMI frame count post-PCI and complete ST-segment elevation resolution (>70%) by the Schroder criteria. Laboratory measures of congestive heart failure (CHF) (N-terminal pro-B type natriuretic […]), and renal function (serum creatinine, estimated glomerular filtration rate, cystatin C, and blood urea nitrogen) were also evaluated.
The incidence of the clinical composite endpoint of all-cause death, new-onset CHF beginning >24 hours post-PCI and within the duration of the index hospitalization, and CHF re-hospitalization was also determined through 30±7 days and 6±1.5 months post-PCI. Safety endpoints included treatment emergent adverse events (TEAE). The pharmacokinetic profile of D-Arg-2′6′-Dmt-Lys-Phe-NH2 was determined based on the drug serum concentration. […]

mu-opioid receptor = conditions: stated in the description, no data shown; cited from earlier work
[4] = 30 min ischemia, 180 min reperfusion, IV continuous infusion from 10 min of ischemia, n = 10, means with standard errors
[5] = peptide group versus placebo group, p < 0.05

2′,6′-Dmt-D-Arg-Phe-Lys-NH2
Penetration of the plasma membrane [1]: readily penetrates the plasma membrane

D-Arg-2′,6′-Dmt-Lys-Phe-NH2 [D-Arg-2′6′-Dmt-Lys-Phe-NH2]
Myocardial Area (%) IA/AR (infarcted area to area of risk) [2, 4]: 24.7 ± 4.7% | Myocardial Area (%) IA/LV (infarcted area to left ventricular area) [2, 4]: 16.2 ± 3.4% | Infarct size compared to the control ([2]; induced cardiac ischemia, FIGS. 4A-4E): decreased infarct size | IA/AR, % versus placebo [2, 5]: −32 ± 13% | IA/LV, % versus placebo [2, 5]: −24 ± 16% | Myocardial salvage with shorter treatment ([2]; treatment for less than 3 hours after reperfusion, i.e., 30 min, data not shown): comparable myocardial salvage | Proportion of complete or partial ST segment resolution ([3]; 24 hours post-PCI, hypertensive subjects, control 88.2%, p=0.05): 100% | Mean infarct volume on cardiac MRI ([3]; day 4±1, 0.05 mg/kg/hr IV, control 52.6±30.2, p=0.03): 35.8 ± 22.8 mL | Mean left ventricle (LV) mass ([3]; hypertensive subjects, 0.05 mg/kg/hr IV, control 162.2±52.4, p=0.08): 141.5±53.2 grams | New onset CHF during the first 8 hours post-PCI ([3]; hypertensive subjects, control 11 incidents): 5 incidents | New onset CHF <24 hours post-PCI ([3]; hypertensive subjects, control 15 incidents): 8 incidents | Myocardial edema on cardiac MRI ([3]; hypertensive subjects, control 60.9±20.5, p=0.053): 48.9±22.0 | Mu-opioid receptor agonist activity (mu-opioid receptor): does not have mu-opioid receptor agonist activity

F[dR]FK-NH2
Mu-opioid receptor agonist activity (mu-opioid receptor): does not have mu-opioid receptor agonist activity

Tyr-D-Arg-Phe-Lys-NH2
Mu-opioid receptor agonist activity (mu-opioid receptor): has mu-opioid receptor agonist activity

Source: patent US20160151444A1, “METHODS FOR THE PREVENTION OR TREATMENT OF VESSEL OCCLUSION INJURY” (Stealth Peptides International, Inc., priority 2009, published 2016)
